Test results: patent US11753407B2, “Compounds for treating spinal muscular atrophy” (PTC Therapeutics, Inc., priority 2012, dated 2023)
Counter-ions that a name gives are not always drawn.

Assays:
[1] = tested on: Smn protein in SMA patient fibroblast cells (GM03813); assay: Smn protein assay in cultured cells (SMN HTRF); assay type: cell-based, human; settings: SMA patient fibroblast cells, 48 hours; for EC1.5x for Smn protein expression: 7-point concentration curve, SMN HTRF, concentration producing 1.5 times Smn protein vs DMSO vehicle control; for maximum fold (Fold) increase of Smn protein: 7-point concentration data, fold relative to vehicle control
In short: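 SMA patient fibroblasts (5,000 cells/well, DMEM-10% FBS) were treated for 48 h at 37 °C with a 7-point, 3.16-fold dilution series in triplicate. RIPA lysates were probed by HTRF (anti-SMN d2/kryptate, overnight, room temperature), reading 665/620 nm. EC1.5× is the concentration giving 1.5-fold Smn over DMSO vehicle.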

[2] = tested on: SMN2 minigene mRNA (SMN2-A minigene) in HEK293H cells; assay: SMN2 minigene mRNA splicing RT-qPCR assay in cultured cells; assay type: cell-based, human; settings: Homo sapiens, HEK293-H; concentration increasing full length SMN2 mRNA 1.5-fold relative to vehicle-treated cells; HEK293H cells with SMN2-A minigene, 24 hours, 7-point concentration data; read-out: EC1.5x for production of full length SMN2 mRNA
In short: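 HEK293H cells stably carrying the SMN2-A minigene were treated for 24 h at 37 °C with a 7-point, 3.16-fold dilution series of compound. Multiplex RT-qPCR measured exon 7-containing minigene FL mRNA against GAPDH, expressed relative to vehicle by modified ΔΔCt; the EC1.5× is the concentration giving a 1.5-fold increase.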

Row | Compound | EC1.5x for Smn protein expression [1] | maximum fold (Fold) increase of Smn protein [1] | melting point | EC (1.5-fold increase) [2] [µM]
1 | Cc1nc2ccc(-c3cc(=O)n4cc(N5CCC(N)CC5)ccc4c3)cc2o1 [Compound 326, 7-(4-aminopiperidin-1-yl)-2-(2-methyl-1,3-benzoxazol-6-yl)-4H-quinolizin-4-one] | ** (an EC1.5× between >1 μM and ≤3 μM is indicated by two stars (**)) | *** (a fold increase between >1.35 and ≤1.5 is indicated by three stars (***)) | 288 to 290 °C | 1 to 3
2 | C[C@H]1CN(c2ccc3nc(-c4cncc(F)c4)cc(=O)n3c2)CCN1 [Compound 93, 2-(5-fluoropyridin-3-yl)-7-[(3S)-3-methylpiperazin-1-yl]-4H-pyrido[1,2-a]pyrimidin-4-one] | – | ** (a fold increase between >1.2 and ≤1.35 is indicated by two stars (**)) | 191 to 199 °C | 1 to 3
3 | COc1ccc(-c2cc(=O)n3cc(N4C[C@H](O)[C@@H](N5CCCC5)C4)ccc3n2)cc1F [Compound 232, 2-(3-fluoro-4-methoxyphenyl)-7-[(3′S,4′S)-4′-hydroxy-1,3′-bipyrrolidin-1′-yl]-4H-pyrido[1,2-a]pyrimidin-4-one] | – | * (A maximum fold increase of ≤1.2 is indicated by one star (*)) | 226 to 232 °C | 1 to 3
4 | COc1ccc(-c2cc(=O)n3cc(N4CCC(N(C)C)CC4)ccc3c2)cc1F (as salt: acetate) [Compound 203, 7-[4-(dimethylamino)piperidin-1-yl]-2-(3-fluoro-4-methoxyphenyl)-4H-quinolizin-4-one] | – | – | 188 to 192 °C | –
5 | CCN1CC=C(c2cc(C)c3nc(-c4ccc(OC)c(OC)c4)cc(=O)n3c2)CC1 [Compound 388, 2-(3,4-dimethoxyphenyl)-7-(1-ethyl-1,2,3,6-tetrahydropyridin-4-yl)-9-methyl-4H-pyrido[1,2-a]pyrimidin-4-one] | – | *** (a fold increase between >1.35 and ≤1.5 is indicated by three stars (***)) | – | < 0.1
6 | Cc1nc2ccc(-c3cc(=O)n4cc(N5C[C@H]6CNC[C@H]6C5)ccc4n3)cc2o1 [Compound 243, 7-[(3aR,6aS)-hexahydropyrrolo[3,4-c]pyrrol-2(1H)-yl]-2-(2-methyl-1,3-benzoxazol-6-yl)-4H-pyrido[1,2-a]pyrimidin-4-one] | **** (an EC1.5x≤0.3 μM is indicated by four stars (****)) | **** (a fold increase between >1.5 and ≤1.65 is indicated by four stars (****)) | – | < 0.1
7 | CCN1CC=C(c2cc(C)c3nc(-c4cc5c(C)nc(C)cn5n4)cc(=O)n3c2)CC1 [Compound 482, 2-(4,6-dimethylpyrazolo[1,5-a]pyrazin-2-yl)-7-(1-ethyl-1,2,3,6-tetrahydropyridin-4-yl)-9-methyl-4H-pyrido[1,2-a]pyrimidin-4-one] | * (An EC1.5× for Smn protein expression between >3 μM and ≤10 μM is indicated by one star (*)) | *** (a fold increase between >1.35 and ≤1.5 is indicated by three stars (***)) | – | < 0.1
8 | Cc1cn2cc(-c3cc(=O)n4cc(C5CCNCC5)ncc4n3)cc(C)c2n1 [Compound 588, 2-(2,8-dimethylimidazo[1,2-a]pyridin-6-yl)-7-(piperidin-4-yl)-4H-pyrazino[1,2-a]pyrimidin-4-one] | **** (an EC1.5x≤0.3 μM is indicated by four stars (****)) | ***** (a fold increase >1.65 is indicated by five stars (*****)) | – | < 0.1
9 | Cc1cc(N2CCN[C@H](C)C2)cn2c(=O)cc(-c3ccc4nn(C)cc4c3)nc12 [Compound 755, 9-methyl-2-(2-methyl-2H-indazol-5-yl)-7-[(3R)-3-methylpiperazin-1-yl]-4H-pyrido[1,2-a]pyrimidin-4-one] | **** (an EC1.5x≤0.3 μM is indicated by four stars (****)) | ***** (a fold increase >1.65 is indicated by five stars (*****)) | – | < 0.1
10 | O=c1cc(-c2cc(F)c(O)c(F)c2)nc2ccc(N3CCNCC3)cn12 (as salt: hydrochloride) [Compound 71, 2-(3,5-difluoro-4-hydroxyphenyl)-7-(piperazin-1-yl)-4H-pyrido[1,2-a]pyrimidin-4-one] | – | – | 290 °C (dec.) | –
11 | Cc1cn2nc(-c3cc(=O)n4nc(C5CCNCC5)ccc4n3)cc2c(C)n1 [Compound 512, 2-(4,6-dimethylpyrazolo[1,5-a]pyrazin-2-yl)-7-(piperidin-4-yl)-4H-pyrimido[1,2-b]pyridazin-4-one] | **** (an EC1.5x≤0.3 μM is indicated by four stars (****)) | ***** (a fold increase >1.65 is indicated by five stars (*****)) | – | < 0.1
12 | Cc1cn2cc(-c3cc(=O)n4cc(C5CCNCC5)ncc4n3)ccc2n1 [Compound 585, 2-(2-methylimidazo[1,2-a]pyridin-6-yl)-7-(piperidin-4-yl)-4H-pyrazino[1,2-a]pyrimidin-4-one] | **** (an EC1.5x≤0.3 μM is indicated by four stars (****)) | ***** (a fold increase >1.65 is indicated by five stars (*****)) | – | < 0.1
13 | COc1ccc(-c2cc(=O)n3cc(N4CCNCC4)ccc3n2)cc1OC(F)F [Compound 99, 2-[3-(difluoromethoxy)-4-methoxyphenyl]-7-(piperazin-1-yl)-4H-pyrido[1,2-a]pyrimidin-4-one] | *** (an EC1.5× between >0.3 μM and ≤1 μM is indicated by three stars (***)) | **** (a fold increase between >1.5 and ≤1.65 is indicated by four stars (****)) | – | 0.3 to 1
14 | Cc1nc2ccc(-c3cc(=O)n4cc(C5=CCNCC5)ccc4n3)cc2o1 [Compound 302, 2-(2-methyl-1,3-benzoxazol-6-yl)-7-(1,2,3,6-tetrahydropyridin-4-yl)-4H-pyrido[1,2-a]pyrimidin-4-one] | **** (an EC1.5x≤0.3 μM is indicated by four stars (****)) | ***** (a fold increase >1.65 is indicated by five stars (*****)) | – | < 0.1
15 | Cc1cn2nc(-c3cc(=O)n4cc(N5CCC6(CC5)CNC6)ccc4n3)cc2c(C)n1 [Compound 804, 7-(2,7-diazaspiro[3.5]non-7-yl)-2-(4,6-dimethylpyrazolo[1,5-a]pyrazin-2-yl)-4H-pyrido[1,2-a]pyrimidin-4-one] | **** (an EC1.5x≤0.3 μM is indicated by four stars (****)) | ***** (a fold increase >1.65 is indicated by five stars (*****)) | – | < 0.1
16 | CCc1nc(C)cn2nc(-c3cc(=O)n4cc(C5=CCNCC5)cc(C)c4n3)cc12 [Compound 773, 2-(4-ethyl-6-methylpyrazolo[1,5-a]pyrazin-2-yl)-9-methyl-7-(1,2,3,6-tetrahydropyridin-4-yl)-4H-pyrido[1,2-a]pyrimidin-4-one] | **** (an EC1.5x≤0.3 μM is indicated by four stars (****)) | ***** (a fold increase >1.65 is indicated by five stars (*****)) | – | < 0.1
17 | CCN1CCC(c2cc(C)c3nc(-c4cc5c(C)nc(C)cn5n4)cc(=O)n3c2)CC1 [Compound 702, 2-(4,6-dimethylpyrazolo[1,5-a]pyrazin-2-yl)-7-(1-ethylpiperidin-4-yl)-9-methyl-4H-pyrido[1,2-a]pyrimidin-4-one] | **** (an EC1.5x≤0.3 μM is indicated by four stars (****)) | ***** (a fold increase >1.65 is indicated by five stars (*****)) | – | < 0.1
18 | Cn1cc(-c2cc(=O)n3cc(N4CCNCC4)ccc3n2)cn1 [Compound 192, 2-(1-methyl-1H-pyrazol-4-yl)-7-(piperazin-1-yl)-4H-pyrido[1,2-a]pyrimidin-4-one] | ** (an EC1.5× between >1 μM and ≤3 μM is indicated by two stars (**)) | ***** (a fold increase >1.65 is indicated by five stars (*****)) | – | 1 to 3
19 | Cc1cn2cc(-c3cc(=O)n4cc(C5CCN(C)CC5)ccc4n3)cc(F)c2n1 [Compound 810, 2-(8-fluoro-2-methylimidazo[1,2-a]pyridin-6-yl)-7-(1-methylpiperidin-4-yl)-4H-pyrido[1,2-a]pyrimidin-4-one] | **** (an EC1.5x≤0.3 μM is indicated by four stars (****)) | ***** (a fold increase >1.65 is indicated by five stars (*****)) | – | < 0.1
